# Measured values from patent EP4644401A1, “ALLULOSE SYRUP WITH IMPROVED PROPERTY” (Samyang Corporation, priority 2022, dated 2024).
# Test: Solubility analysis of allulose dimer crystals in water
# Assay type: physicochemical
# Conditions: water as solvent, solvent temperature 25°C
smiles,measurement,value
O=C(CO)[C@H](O)[C@H](O)[C@H](O)CO [allulose],solubility,340 mg/mL
